{"source": "paper PMC10609081", "about": "“In Vivo Trafficking of the Anticancer Drug Tris(8-Quinolinolato) Gallium (III) (KP46) by Gallium-68/67 PET/SPECT Imaging” (Molecules, 2023)", "key": {"[1]": {"design": "method as in PMID 16938349, PMID 21305117", "settings": "bulk drug, spectrophotometric; cited from earlier work"}, "[2]": {"assay": "ICP-MS analysis of 69Ga in tissues after oral bulk dose", "format": "in vivo, mice", "settings": "bulk (group D), 4 h", "protocol": "Oral [^68/67Ga]KP46: The protocol for oral administration experiments reported here was devised on the basis of pilot experiments described in Supplementary Materials (Figure S12). For short-term (up to 4 h) studies with ^68Ga, awake (nonanaesthetised, to avoid suppressive effects of anaesthesia on digestive tract activity) mice that had been fasted for up to 14 h were given [^68Ga]KP46 (5–13 MBq) (group C, “tracer”, n = 3) or [^68Ga]KP46 and KP46 (5–8.5 MBq) (group D, “bulk”, n = 3) by oral gavage. The dose given orally to group D animals, prepared as described above, was 0.4 μmol in 400 μL, molar activity ca. 25 MBq/μmol. […] After separation of layers, a sample of 400 µL from each layer was transferred to fresh Eppendorf tubes and analysed with a gamma counter. Stomach content (72–77 mg), small intestine content (35–88 mg), and large intestine content (86–100 mg) samples from each mouse were analysed similarly by adding them directly to Eppendorf tubes containing a pre-equilibrated mixture of octanol (500 µL) and water (500 µL) before vortexing and centrifuging at 10,000 rpm for 10 min at 4 °C. From each layer, 430 µL was transferred to fresh Eppendorf tubes and analysed with a gamma counter; the solid residues were also counted. […]\nexpressed as mean ± SD (n = 3). […]"}, "[3]": {"design": "method as in PMID 8687115", "settings": "healthy mice, 2 weeks daily oral doses; cited from earlier work"}, "[4]": {"assay": "Distribution/partition coefficients (logD, logP), shake flask with gamma counting", "format": "physicochemical", "settings": "octanol/water, tracer level, mean ± SD", "protocol": "Tracer-level [^68Ga]KP46 and [^68Ga]Ga-acetate solutions (5–20 µL, 0.3–0.5 MBq) were added to a pre-equilibrated mixture (500 µL/500 µL) of octanol/water (for logP measurement) or octanol/PBS (for logD7.4 measurement). Samples were vortexed for two minutes in a Multi Vortex Mixer V-32 (Grant Bio). From each layer, a sample of 200 µL was taken and its radioactivity measured using a gamma counter."}, "[5]": {"assay": "Octanol extraction of serum, urine and gut contents after oral radiolabelled KP46 (speciation)", "format": "in vivo, mice", "settings": "oral, tracer level (group E), 24 h", "protocol": "Serum and urine from the “tracer level” group (E) were subjected to octanol extraction 24 h postadministration to determine the fraction of ^67Ga that may have survived in the form of [^67Ga]KP46 after absorption from the gut.\nOral [^68/67Ga]KP46: The protocol for oral administration experiments reported here was devised on the basis of pilot experiments described in Supplementary Materials (Figure S12). For short-term (up to 4 h) studies with ^68Ga, awake (nonanaesthetised, to avoid suppressive effects of anaesthesia on digestive tract activity) mice that had been fasted for up to 14 h were given [^68Ga]KP46 (5–13 MBq) (group C, “tracer”, n = 3) or [^68Ga]KP46 and KP46 (5–8.5 MBq) (group D, “bulk”, n = 3) by oral gavage. The dose given orally to group D animals, prepared as described above, was 0.4 μmol in 400 μL, molar activity ca. 25 MBq/μmol. The mice were fasted for three hours before being anaesthetised and PET/CT scanned dynamically for one hour (see below for scanning protocol). After scanning, mice in both groups were culled by neck dislocation while still anaesthetised four hours post-oral administration for organ harvesting and gamma counting. Samples of blood, urine and contents of stomach, small intestine and large intestine (the organs/tissue with measurable activity; tumours were not included as they were insufficiently radioactive) from the mice in group C were used for octanol extraction (shake-flask method) to separate water-soluble (released) and lipid-soluble (intact KP46) ^68Ga. Serum samples were prepared by placing blood samples in a serum separator tube (brand VS367954, Fisher Scientific Ltd., Loughborough, UK) and centrifuging at 3000 rpm for 10 min. Serum (200–300 µL) and urine samples (150–180 µL, taken from the excised bladders) were directly added to Eppendorf tubes containing a pre-equilibrated mixture of octanol (500 µL) and water (500 µL). The tubes were vortexed for two minutes on a Multi Vortex Mixer V-32 (Grant Bio). After separation of layers, a sample of 400 µL from each layer was transferred to fresh Eppendorf tubes and analysed with a gamma counter. Stomach content (72–77 mg), small intestine content (35–88 mg), and large intestine content (86–100 mg) samples from each mouse were analysed similarly by adding them directly to Eppendorf tubes containing a pre-equilibrated mixture of octanol (500 µL) and water (500 µL) before vortexing and centrifuging at 10,000 rpm for 10 min at 4 °C. From each layer, 430 µL was transferred to fresh Eppendorf tubes and analysed with a gamma counter; the solid residues were also counted. Tissues from mice in group D were used after radioactive decay for measurements of nonradioactive ^69Ga content."}, "[6]": {"biological_target": "T1, human apo-transferrin (apo-Tf) (Homo sapiens, UniProt P02787)", "T1 construct": "purchased Sigma Aldrich", "T1 sequence (P02787 20-698)": "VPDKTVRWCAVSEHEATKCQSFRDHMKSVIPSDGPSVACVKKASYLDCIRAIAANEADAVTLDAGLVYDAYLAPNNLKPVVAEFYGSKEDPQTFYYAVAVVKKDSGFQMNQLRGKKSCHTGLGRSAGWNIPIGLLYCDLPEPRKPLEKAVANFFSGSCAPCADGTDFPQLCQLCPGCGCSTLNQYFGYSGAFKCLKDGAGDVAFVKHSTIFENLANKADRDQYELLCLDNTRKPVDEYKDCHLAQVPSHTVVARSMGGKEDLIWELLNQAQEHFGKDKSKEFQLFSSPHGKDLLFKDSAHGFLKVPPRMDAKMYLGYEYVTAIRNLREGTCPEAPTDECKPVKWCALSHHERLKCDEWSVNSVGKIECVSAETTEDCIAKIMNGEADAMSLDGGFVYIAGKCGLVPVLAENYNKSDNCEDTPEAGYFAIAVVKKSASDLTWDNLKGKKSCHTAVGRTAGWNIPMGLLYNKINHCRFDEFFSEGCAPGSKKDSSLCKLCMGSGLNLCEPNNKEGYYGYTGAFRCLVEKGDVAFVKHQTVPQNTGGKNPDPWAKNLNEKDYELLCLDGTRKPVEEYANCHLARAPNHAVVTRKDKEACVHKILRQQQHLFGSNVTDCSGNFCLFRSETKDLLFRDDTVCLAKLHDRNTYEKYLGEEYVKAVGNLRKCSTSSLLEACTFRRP", "assay": "Binding to apo-transferrin by size exclusion chromatography (PD MidiTrap G-25)", "format": "in vitro ADME", "settings": "incubated with apo-Tf in the presence of bicarbonate, sampled over 48 h", "protocol": "Solutions of human apo-transferrin (apo-Tf, 2 mg/mL) and human serum albumin (HSA, 50 mg/mL) (both purchased from Sigma Aldrich) were dissolved in aqueous NaHCO3 (5 mM, pH = 8) and PBS (pH = 7.4), respectively. An amount of 1 MBq of tracer-level [^68Ga]KP46 (13–20 µL) or [^68Ga]gallium acetate (20–25 µL) was added to 1.2 mL of the apo-Tf solution and to a similar apo-Tf-free NaHCO3 solution (control). Similarly, [^68Ga]KP46 and [^68Ga]gallium acetate solutions were added to 1.5 mL PBS containing HSA or HSA-free PBS (control). The samples were incubated for 60 min at 37 °C (pH = 7–7.5). From each mixture, 0.5 mL was loaded into PD MidiTrap G-25 size exclusion chromatography cartridges that were preconditioned with 8 mL of NaHCO3 (5 mM) (for apo-Tf binding) or PBS (for HSA binding). Fractions (0.5 mL) were collected and counted with a Wallac gamma counter. Protein absorbance at 280 nm was measured using a Nanodrop spectrophotometer. To investigate the speciation of the Ga–KP46 complex in the presence of apo-Tf at later time points (up to 48 h), the experiment was repeated with ^67Ga."}, "[7]": {"assay": "SPECT imaging and ex vivo biodistribution 24 h and 48 h after oral [67Ga]KP46, tracer (group E) and bulk (group F)", "format": "in vivo, mice", "settings": "n = 4", "protocol": "The tracer-level samples for oral administration were prepared in the same manner but with 20 μL of KP46-free DMSO in place of the KP46 solution in DMSO.\nAll animal experiments were performed in accordance with the Animals (Scientific Procedures) Act, 1986, with protocols approved by the Animal Welfare and Ethical Review Body for King’s College London under project and personal licences approved by the UK Home Office. Tumour xenograft studies were performed on female NSG mice or female athymic nude mice after injecting them subcutaneously in the right shoulder with 2.5 × 10^6 A375 cells in 100 µL of PBS. All in vivo studies were conducted between 14 and 24 days after inoculation, with tumour volumes between 100 mm^3 and 580 mm^3 (see Supplementary Materials, Figure S11).\nFor long-term (up to 48 h) studies, a similar protocol was followed, but SPECT imaging using ^67Ga was repeated at intervals up to 48 h instead of PET imaging up to only 4 h postadministration. Athymic nude nu/nu mice bearing A375 xenografts were fasted for 7–14 h and divided in two groups: E (n = 4) and F (n = 4). Awake (nonanaesthetised) mice were orally administered with [^67Ga]KP46 (2–11 MBq, “tracer”, group E) or with [^67Ga]KP46 and KP46 (1–11 MBq, “bulk”, group F, given 0.4 μmol KP46 with molar activity ca. 15 MBq/μmol) and fasted for three hours. Mice in both groups were then anaesthetised and SPECT/CT scanned (see scanning protocol below) for one hour. Mice were then allowed to recover and feed. At 24 h postadministration, mice were reanaesthetised and rescanned, then group E mice were culled while still anaesthetised, and tissues were harvested for ex vivo gamma counting.\nPET/CT images were acquired with a nanoScan® PET/CT (Mediso Medical Imaging Systems, Budapest, Hungary) scanner operating in list mode using a 400–600 keV energy window and a coincidence window of 1:3. CT scans were acquired for anatomical reference and attenuation correction (55 keV X-ray, exposure time 1000 ms, and 360 projections and pitch 1). PET projection data were reconstructed using the Tera-tomo® software package provided with the scanner —a Monte Carlo-based fully 3D iterative algorithm with four iterations, six subsets, and 0.4 mm isotropic voxel size; corrections for attenuation, scatter, and dead-time were enabled. The data were then visualised and quantified using VivoQuant^© v.2.50 (InviCro, Boston, MA, USA) software. SPECT/CT imaging was performed on a NanoSPECT/CT Silver Upgrade scanner (Mediso; 4 heads, 4 × 9 1.0 mm multipinhole collimators) in helical scanning mode using energy windows centred around 93.20 ± 20% keV (primary), 184.60 ± 20% keV (secondary), and 300.00 ± 20% keV (tertiary). […] Images were coregistered and analysed using VivoQuant v2.50 (InviCro, Needham, MA, USA)."}, "[8]": {"settings": "single oral administration with bulk gallium chloride (100 nmol), after five days; cited from earlier work"}}, "note": "Like-named read-outs stand apart in the source and are kept apart here.", "data": [{"smiles": "[Ga+3].[O-]c1cccc2cccnc12.[O-]c1cccc2cccnc12.[O-]c1cccc2cccnc12", "note": "[KP46, tris(8-quinolinolato)gallium (III)]", "values": [{"measurement": "logP(octanol/water)", "setting": "[1]", "value": 0.88}, {"measurement": "69Ga delivered to tumour by ICP-MS", "setting": "[2]", "value": "0.17 ± 0.1", "unit": "%ID/g"}, {"measurement": "69Ga in large intestine by ICP-MS", "setting": "[2]", "value": "23.7 ± 9.2", "unit": "%ID/g"}, {"measurement": "accumulation of gallium in liver", "setting": "[3]", "value": "0.08 ± 0.04", "unit": "%ID/g"}, {"measurement": "logP(octanol/water)", "setting": "[4]", "value": "2.33 ± 0.28"}]}, {"smiles": "[67Ga+3].[O-]c1cccc2cccnc12.[O-]c1cccc2cccnc12.[O-]c1cccc2cccnc12", "note": "[[^67Ga]KP46]", "values": [{"measurement": "serum radioactivity extracted into octanol phase", "setting": "[5]", "value": "Less than 6%"}, {"measurement": "urine activity extracted into octanol phase", "setting": "[5]", "value": "less than 3%"}, {"measurement": "binding of 67Ga to apo-Tf", "setting": "[6]", "value": "very minor binding"}, {"measurement": "uptake in bone, ex vivo", "setting": "[7]; bulk level (group F), 48 h", "value": "2.55 ± 1.82", "unit": "%ID/g"}, {"measurement": "uptake in liver, ex vivo", "setting": "[7]; bulk level (group F), 48 h", "value": "1.34 ± 1.01", "unit": "%ID/g"}, {"measurement": "uptake in tumour, ex vivo", "setting": "[7]; bulk level (group F), 48 h", "value": "1.57 ± 0.48", "unit": "%ID/g"}, {"measurement": "activity in faeces, ex vivo", "setting": "[7]; tracer level (group E), 24 h", "value": "3.0 ± 2.9", "unit": "%ID/g"}]}, {"smiles": "O=C([O-])CC(O)(CC(=O)[O-])C(=O)[O-].[67Ga+3]", "note": "[[^67Ga]gallium citrate]", "values": [{"measurement": "original measured activity remaining in the mice", "setting": "[8]", "value": "0.3 ± 0.08", "unit": "%"}]}]}
